Data taken from PubChem BioAssay AID2060513 (Molecular Pharmacology Branch, DTP, NCI, 2025).

Test system: 299254-011-R-J1-PDC complex spheroids viability
Test: Anticancer human tumor 299254-011-R-J1-PDC patient-derived melanoma cell line growth inhibition [GQUAD]
Conditions: for IC50: curve of first compound; for viability, T/C: stronger effect = lower value
How it was run: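 Viability of tumor cells grown as complex spheroids with endothelial and stromal cells, exposed to drug combinations. Top concentration at or near clinical Cmax (else 10 microM), diluted in half-log increments.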

[1] = second compound 0.0316 µM, first compound 0.0316 µM
[2] = second compound 0.0316 µM, first compound 0.1 µM
[3] = second compound 0.0316 µM, first compound 0.316 µM
[4] = second compound 0.0316 µM, first compound 1 µM
[5] = second compound 0.0316 µM, first compound 3.16 µM
[6] = second compound 0.0316 µM, first compound 10 µM
[7] = second compound 0.1 µM, first compound 0.0316 µM
[8] = second compound 0.1 µM, first compound 0.1 µM
[9] = second compound 0.1 µM, first compound 0.316 µM
[10] = second compound 0.1 µM, first compound 1 µM
[11] = second compound 0.1 µM, first compound 3.16 µM
[12] = second compound 0.1 µM, first compound 10 µM
[13] = second compound 0.316 µM, first compound 0.0316 µM
[14] = second compound 0.316 µM, first compound 0.1 µM
[15] = second compound 0.316 µM, first compound 0.316 µM
[16] = second compound 0.316 µM, first compound 1 µM
[17] = second compound 0.316 µM, first compound 3.16 µM
[18] = second compound 0.316 µM, first compound 10 µM
[19] = second compound 1 µM, first compound 0.0316 µM
[20] = second compound 1 µM, first compound 0.1 µM
[21] = second compound 1 µM, first compound 0.316 µM
[22] = second compound 1 µM, first compound 1 µM
[23] = second compound 1 µM, first compound 3.16 µM
[24] = second compound 1 µM, first compound 10 µM
[25] = second compound 3.16 µM, first compound 0.0316 µM
[26] = second compound 3.16 µM, first compound 0.1 µM
[27] = second compound 3.16 µM, first compound 0.316 µM
[28] = second compound 3.16 µM, first compound 1 µM
[29] = second compound 3.16 µM, first compound 3.16 µM
[30] = second compound 3.16 µM, first compound 10 µM
[31] = second compound 10 µM, first compound 0.0316 µM
[32] = second compound 10 µM, first compound 0.1 µM
[33] = second compound 10 µM, first compound 0.316 µM
[34] = second compound 10 µM, first compound 1 µM
[35] = second compound 10 µM, first compound 3.16 µM
[36] = second compound 10 µM, first compound 10 µM
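Also: spheroids exposed to the agents for seven days before readout.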
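For viability, T/C in this document: percent viability relative to DMSO vehicle control wells = 100%.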

## C=CCn1c(=O)c2cnc(Nc3ccc(N4CCN(C)CC4)cc3)nc2n1-c1cccc(C(C)(C)O)n1 + CN(C)c1ccc(Nc2c3ccc(NC(=O)CCN4CCCC4)cc3nc3cc(NC(=O)CCN4CCCC4)ccc23)cc1
Second compound 0.0316 µM
  IC50: 0.999 µM
Second compound 0.1 µM
  IC50: 1.79 µM
Second compound 0.316 µM
  IC50: 1.75 µM
Second compound 1 µM
  IC50: 2.28 µM
Second compound 3.16 µM
  IC50: 1.97 µM
Second compound 10 µM
  IC50: 1.68 µM
[1]
  viability, T/C: 101%
[2]
  viability, T/C: 106%
[3]
  viability, T/C: 77.8%
[4]
  viability, T/C: 49.7%
[5]
  viability, T/C: 46.8%
[6]
  viability, T/C: 31.5%
[7]
  viability, T/C: 88.2%
[8]
  viability, T/C: 94.7%
[9]
  viability, T/C: 76.6%
[10]
  viability, T/C: 69.6%
[11]
  viability, T/C: 30.8%
[12]
  viability, T/C: 27.3%
[13]
  viability, T/C: 92.7%
[14]
  viability, T/C: 81.2%
[15]
  viability, T/C: 95.9%
[16]
  viability, T/C: 65.9%
[17]
  viability, T/C: 34.9%
[18]
  viability, T/C: 31.5%
[19]
  viability, T/C: 120%
[20]
  viability, T/C: 99.5%
[21]
  viability, T/C: 91.9%
[22]
  viability, T/C: 71.1%
[23]
  viability, T/C: 37.4%
[24]
  viability, T/C: 29.6%
[25]
  viability, T/C: 92.4%
[26]
  viability, T/C: 94.5%
[27]
  viability, T/C: 119%
[28]
  viability, T/C: 75.2%
[29]
  viability, T/C: 36.2%
[30]
  viability, T/C: 28.9%
[31]
  viability, T/C: 97.5%
[32]
  viability, T/C: 115%
[33]
  viability, T/C: 92.7%
[34]
  viability, T/C: 67.8%
[35]
  viability, T/C: 27.2%
[36]
  viability, T/C: 28.3%

## CC(C)(O)C1CCC(Nc2ccc3ncc(-c4cccc(C(F)(F)F)c4)n3n2)CC1 (stereo not given) + CN(C)c1ccc(Nc2c3ccc(NC(=O)CCN4CCCC4)cc3nc3cc(NC(=O)CCN4CCCC4)ccc23)cc1
Second compound 0.0316 µM
  IC50: > 10 µM
Second compound 0.1 µM
  IC50: > 10 µM
Second compound 0.316 µM
  IC50: > 10 µM
Second compound 1 µM
  IC50: > 10 µM
Second compound 3.16 µM
  IC50: > 10 µM
Second compound 10 µM
  IC50: 2.73 µM
[1]
  viability, T/C: 107%
[2]
  viability, T/C: 117%
[3]
  viability, T/C: 130%
[4]
  viability, T/C: 98.6%
[5]
  viability, T/C: 95.1%
[6]
  viability, T/C: 92.2%
[7]
  viability, T/C: 97.2%
[8]
  viability, T/C: 94.7%
[9]
  viability, T/C: 97.8%
[10]
  viability, T/C: 94.5%
[11]
  viability, T/C: 94%
[12]
  viability, T/C: 121%
[13]
  viability, T/C: 103%
[14]
  viability, T/C: 92%
[15]
  viability, T/C: 101%
[16]
  viability, T/C: 89.5%
[17]
  viability, T/C: 85.1%
[18]
  viability, T/C: 133%
[19]
  viability, T/C: 89.7%
[20]
  viability, T/C: 103%
[21]
  viability, T/C: 88.6%
[22]
  viability, T/C: 107%
[23]
  viability, T/C: 82.8%
[24]
  viability, T/C: 100%
[25]
  viability, T/C: 91.5%
[26]
  viability, T/C: 93.9%
[27]
  viability, T/C: 117%
[28]
  viability, T/C: 112%
[29]
  viability, T/C: 65.5%
[30]
  viability, T/C: 84.2%
[31]
  viability, T/C: 105%
[32]
  viability, T/C: 103%
[33]
  viability, T/C: 103%
[34]
  viability, T/C: 111%
[35]
  viability, T/C: 27.6%
[36]
  viability, T/C: 56.4%

## COc1ncnc(C2CC2)c1-c1ncc2cnn(Cc3ccc(-c4nc(C(F)(F)F)cn4C(C)C)cc3)c2n1 + CN(C)c1ccc(Nc2c3ccc(NC(=O)CCN4CCCC4)cc3nc3cc(NC(=O)CCN4CCCC4)ccc23)cc1
Second compound 0.0316 µM
  IC50: > 10 µM
Second compound 0.1 µM
  IC50: > 10 µM
Second compound 0.316 µM
  IC50: > 10 µM
Second compound 1 µM
  IC50: > 10 µM
Second compound 3.16 µM
  IC50: > 10 µM
Second compound 10 µM
  IC50: > 10 µM
[1]
  viability, T/C: 92.6%
[2]
  viability, T/C: 78.1%
[3]
  viability, T/C: 106%
[4]
  viability, T/C: 98.3%
[5]
  viability, T/C: 101%
[6]
  viability, T/C: 88%
[7]
  viability, T/C: 102%
[8]
  viability, T/C: 97.3%
[9]
  viability, T/C: 114%
[10]
  viability, T/C: 96.3%
[11]
  viability, T/C: 97.4%
[12]
  viability, T/C: 121%
[13]
  viability, T/C: 101%
[14]
  viability, T/C: 103%
[15]
  viability, T/C: 92.2%
[16]
  viability, T/C: 99.4%
[17]
  viability, T/C: 101%
[18]
  viability, T/C: 117%
[19]
  viability, T/C: 117%
[20]
  viability, T/C: 77%
[21]
  viability, T/C: 98.6%
[22]
  viability, T/C: 98.6%
[23]
  viability, T/C: 99.8%
[24]
  viability, T/C: 107%
[25]
  viability, T/C: 86.9%
[26]
  viability, T/C: 99.8%
[27]
  viability, T/C: 86.5%
[28]
  viability, T/C: 105%
[29]
  viability, T/C: 113%
[30]
  viability, T/C: 104%
[31]
  viability, T/C: 93.3%
[32]
  viability, T/C: 110%
[33]
  viability, T/C: 96.2%
[34]
  viability, T/C: 79.4%
[35]
  viability, T/C: 89.5%
[36]
  viability, T/C: 93.7%

## CC1COCCN1c1cc(C2(S(C)(=N)=O)CC2)nc(-c2ccnc3[nH]ccc23)n1 (stereo not given) + Cc1[nH]c2ccc(F)cc2c1-c1nc2c3cccnc3c3ncccc3c2[nH]1
Second compound 0.0316 µM
  IC50: 2.91 µM
Second compound 0.1 µM
  IC50: 5.58 µM
Second compound 0.316 µM
  IC50: 4.71 µM
Second compound 1 µM
  IC50: 4.53 µM
Second compound 3.16 µM
  IC50: 3.17 µM
Second compound 10 µM
  IC50: 2.46 µM
[1]
  viability, T/C: 105%
[2]
  viability, T/C: 86.6%
[3]
  viability, T/C: 110%
[4]
  viability, T/C: 67.8%
[5]
  viability, T/C: 53.6%
[6]
  viability, T/C: 31.8%
[7]
  viability, T/C: 85%
[8]
  viability, T/C: 95.9%
[9]
  viability, T/C: 100%
[10]
  viability, T/C: 87.4%
[11]
  viability, T/C: 64%
[12]
  viability, T/C: 35.8%
[13]
  viability, T/C: 78.7%
[14]
  viability, T/C: 96.4%
[15]
  viability, T/C: 114%
[16]
  viability, T/C: 87.9%
[17]
  viability, T/C: 64.2%
[18]
  viability, T/C: 24%
[19]
  viability, T/C: 91%
[20]
  viability, T/C: 90.3%
[21]
  viability, T/C: 96.1%
[22]
  viability, T/C: 111%
[23]
  viability, T/C: 59.4%
[24]
  viability, T/C: 29.3%
[25]
  viability, T/C: 108%
[26]
  viability, T/C: 99.2%
[27]
  viability, T/C: 97.7%
[28]
  viability, T/C: 97.1%
[29]
  viability, T/C: 50%
[30]
  viability, T/C: 18%
[31]
  viability, T/C: 127%
[32]
  viability, T/C: 83%
[33]
  viability, T/C: 97.5%
[34]
  viability, T/C: 92%
[35]
  viability, T/C: 38.3%
[36]
  viability, T/C: 14.1%

## COc1ccc([C@@H](O)c2cc(-c3ncnc4cc(N5CCOCC5)ccc34)c(F)cc2Cl)nn1 + Cc1[nH]c2ccc(F)cc2c1-c1nc2c3cccnc3c3ncccc3c2[nH]1
Second compound 0.0316 µM
  IC50: > 10 µM
Second compound 0.1 µM
  IC50: > 10 µM
Second compound 0.316 µM
  IC50: 8.51 µM
Second compound 1 µM
  IC50: 9.05 µM
Second compound 3.16 µM
  IC50: 8.89 µM
Second compound 10 µM
  IC50: 7.15 µM
[1]
  viability, T/C: 97.4%
[2]
  viability, T/C: 113%
[3]
  viability, T/C: 108%
[4]
  viability, T/C: 84.6%
[5]
  viability, T/C: 83.8%
[6]
  viability, T/C: 57.7%
[7]
  viability, T/C: 92%
[8]
  viability, T/C: 97.3%
[9]
  viability, T/C: 109%
[10]
  viability, T/C: 86.9%
[11]
  viability, T/C: 77.6%
[12]
  viability, T/C: 51%
[13]
  viability, T/C: 82.2%
[14]
  viability, T/C: 108%
[15]
  viability, T/C: 107%
[16]
  viability, T/C: 83.4%
[17]
  viability, T/C: 111%
[18]
  viability, T/C: 42.1%
[19]
  viability, T/C: 85.3%
[20]
  viability, T/C: 92.5%
[21]
  viability, T/C: 106%
[22]
  viability, T/C: 98.9%
[23]
  viability, T/C: 75.9%
[24]
  viability, T/C: 47.6%
[25]
  viability, T/C: 96.3%
[26]
  viability, T/C: 120%
[27]
  viability, T/C: 87.8%
[28]
  viability, T/C: 95%
[29]
  viability, T/C: 97.1%
[30]
  viability, T/C: 44.6%
[31]
  viability, T/C: 121%
[32]
  viability, T/C: 93.3%
[33]
  viability, T/C: 100%
[34]
  viability, T/C: 93.9%
[35]
  viability, T/C: 82.8%
[36]
  viability, T/C: 36.9%
